Laboratory results reported in patent US10004701B2, “Methods and compositions for treating infection” (UNIVERSITY OF ROCHESTER, priority 2012, dated 2018).
Structures can show the parent of a compound that is named as a salt. Where two headings read alike, the source gives them in different places.

Experiments:
Experiment in all cases: AK assay 384-well format, Prestwick library screening
E. cloacae = assay type: cell-based, Enterobacter cloacae; details: 50 μM final drug concentration; for fold induction at 50 µM: Enterobacter cloacae, 3 h
E. coli = assay type: cell-based, Escherichia coli; details: 50 μM final drug concentration; for fold induction at 50 µM: Escherichia coli, 3 h
K. pneumoniae = assay type: cell-based, Klebsiella pneumoniae; details: 50 μM final drug concentration; for fold induction at 50 µM: Klebsiella pneumoniae, 3 h
[1] = tested on: S. aureus strain USA300-0114; assay type: cell-based, Staphylococcus aureus; details: 50 μM final drug concentration; for fold induction at 50 µM: Staphylococcus aureus, USA300, 3 h
[2] = tested on: A. baumannii strain 98-37-09; assay type: cell-based, Acinetobacter baumannii; details: 50 μM final drug concentration; for fold induction at 50 µM: Acinetobacter baumannii, 983709, 3 h
P. aeruginosa = assay type: cell-based, Pseudomonas aeruginosa; details: 50 μM final drug concentration; for fold induction at 50 µM: Pseudomonas aeruginosa, 3 h
E. faecium = assay type: cell-based, Enterococcus faecium; details: 50 μM final drug concentration; for fold induction at 50 µM: Enterococcus faecium, 3 h
[3] = cutoff for positive-scoring molecules 3-fold increase, read-out: AK-based Prestwick Library Screening Results, E. cloacae (fold increase in extracellular AK activity)
[4] = cutoff for positive-scoring molecules 3-fold increase, read-out: AK-based Prestwick Library Screening Results, E. coli (fold increase in extracellular AK activity)
[5] = cutoff for positive-scoring molecules 3-fold increase, read-out: AK-based Prestwick Library Screening Results, K. pneumoniae (fold increase in extracellular AK activity)
[6] = cutoff for positive-scoring molecules 3-fold increase, read-out: AK-based Prestwick Library Screening Results, S. aureus (fold increase in extracellular AK activity)
[7] = cutoff for positive-scoring molecules 3-fold increase, read-out: AK-based Prestwick Library Screening Results, A. baumannii (fold increase in extracellular AK activity)
[8] = cutoff for positive-scoring molecules 3-fold increase, read-out: AK-based Prestwick Library Screening Results, P. aeruginosa (fold increase in extracellular AK activity)
[9] = cutoff for positive-scoring molecules 3-fold increase, read-out: AK-based Prestwick Library Screening Results, E. faecium (fold increase in extracellular AK activity)
[10] = planktonic E. cloacae, 384-well, cutoff for positive-scoring molecules 3-fold increase, read-out: AK-based Prestwick Library Screening Results: E. cloacae (increase in extracellular AK activity)
[11] = planktonic E. coli, 384-well, cutoff for positive-scoring molecules 3-fold increase, read-out: AK-based Prestwick Library Screening Results: E. coli (increase in extracellular AK activity)
[12] = planktonic K. pneumoniae, 384-well, cutoff for positive-scoring molecules 3-fold increase, read-out: AK-based Prestwick Library Screening Results: K. pneumoniae (increase in extracellular AK activity)
[13] = planktonic S. aureus, 384-well, cutoff for positive-scoring molecules 3-fold increase, read-out: AK-based Prestwick Library Screening Results: S. aureus (increase in extracellular AK activity)
[14] = planktonic A. baumannii, 384-well, cutoff for positive-scoring molecules 3-fold increase, read-out: AK-based Prestwick Library Screening Results: A. baumannii (increase in extracellular AK activity)
[15] = planktonic P. aeruginosa, 384-well, cutoff for positive-scoring molecules 3-fold increase, read-out: AK-based Prestwick Library Screening Results: P. aeruginosa (increase in extracellular AK activity)
[16] = planktonic E. faecium, 384-well, cutoff for positive-scoring molecules 3-fold increase, read-out: AK-based Prestwick Library Screening Results: E. faecium (increase in extracellular AK activity)
[17] = 384-well format, cutoff for positive-scoring molecules 3-fold increase
[18] = cutoff for positive-scoring molecules 3-fold increase

CC(C)NCC(O)COc1cccc2ccccc12 (centres unmarked) [Propranolol hydrochloride]
fold induction at 50 µM (E. cloacae; [3]): 1.4
fold induction at 50 µM (E. coli; [4]): 1.2
fold induction at 50 µM (K. pneumoniae; [5]): 1.1
fold induction at 50 µM [1, 6]: 1.4
fold induction at 50 µM [2, 7]: 1.2
fold induction at 50 µM (P. aeruginosa; [8]): 1.2
fold induction at 50 µM (E. faecium; [9]): 1.1

CN1CCCN(C(c2ccccc2)c2ccc(Cl)cc2)CC1 (centres unmarked) [Homochlorcyclizine dihydrochloride]
fold induction at 50 µM (E. cloacae; planktonic E. cloacae, 384-well, […], read-out: AK-based Prestwick Library Screening Results: E. cloacae (increase in extracellular AK activity)): 1.8
fold induction at 50 µM (E. coli; planktonic E. coli, 384-well, […], read-out: AK-based Prestwick Library Screening Results: E. coli (increase in extracellular AK activity)): 1.5
fold induction at 50 µM (K. pneumoniae; planktonic K. pneumoniae, 384-well, […], read-out: AK-based Prestwick Library Screening Results: K. pneumoniae (increase in extracellular AK activity)): 1.1
fold induction at 50 µM ([1]; planktonic S. aureus, 384-well, […], read-out: AK-based Prestwick Library Screening Results: S. aureus (increase in extracellular AK activity)): 1
fold induction at 50 µM ([2]; planktonic A. baumannii, 384-well, […], read-out: AK-based Prestwick Library Screening Results: A. baumannii (increase in extracellular AK activity)): 1.2
fold induction at 50 µM (P. aeruginosa; planktonic P. aeruginosa, 384-well, […], read-out: AK-based Prestwick Library Screening Results: P. aeruginosa (increase in extracellular AK activity)): 1.2
fold induction at 50 µM (E. faecium; planktonic E. faecium, 384-well, […], read-out: AK-based Prestwick Library Screening Results: E. faecium (increase in extracellular AK activity)): 1.2

O=c1[nH]c2ccccc2n1C1CCN(CCCC(c2ccc(F)cc2)c2ccc(F)cc2)CC1 [Pimozide]
fold induction at 50 µM (E. cloacae; [10]): 1.2
fold induction at 50 µM (E. coli; [11]): 1.7
fold induction at 50 µM (K. pneumoniae; [12]): 1.3
fold induction at 50 µM [1, 13]: 2.3
fold induction at 50 µM [2, 14]: 8.7
fold induction at 50 µM (P. aeruginosa; [15]): 1.3
fold induction at 50 µM (E. faecium; [16]): 1.3

c1ccc(CN(CC2=NCCN2)c2ccccc2)cc1 [Antazoline hydrochloride]
fold induction at 50 µM (E. cloacae; 384-well format, cutoff for positive-scoring molecules 3-fold increase, read-out: AK-based Prestwick Library Screening Results, E. cloacae (increase in extracellular AK activity)): 0.8
fold induction at 50 µM (E. coli; 384-well format, cutoff for positive-scoring molecules 3-fold increase, read-out: AK-based Prestwick Library Screening Results, E. coli (increase in extracellular AK activity)): 0.7
fold induction at 50 µM (K. pneumoniae; 384-well format, cutoff for positive-scoring molecules 3-fold increase, read-out: AK-based Prestwick Library Screening Results, K. pneumoniae (increase in extracellular AK activity)): 0.6
fold induction at 50 µM ([1]; 384-well format, cutoff for positive-scoring molecules 3-fold increase, read-out: AK-based Prestwick Library Screening Results, S. aureus (increase in extracellular AK activity)): 0.8
fold induction at 50 µM ([2]; 384-well format, cutoff for positive-scoring molecules 3-fold increase, read-out: AK-based Prestwick Library Screening Results, A. baumannii (increase in extracellular AK activity)): 0.8
fold induction at 50 µM (P. aeruginosa; 384-well format, cutoff for positive-scoring molecules 3-fold increase, read-out: AK-based Prestwick Library Screening Results, P. aeruginosa (increase in extracellular AK activity)): 0.7
fold induction at 50 µM (E. faecium; 384-well format, cutoff for positive-scoring molecules 3-fold increase, read-out: AK-based Prestwick Library Screening Results, E. faecium (increase in extracellular AK activity)): 1

(S)-propranolol hydrochloride
AK-based Prestwick library screening result, E. cloacae (fold increase in extracellular AK activity) (E. cloacae; planktonic E. cloacae, positive cutoff 3-fold increase): 1.6
AK-based Prestwick library screening result, E. coli (fold increase in extracellular AK activity) (E. coli; planktonic E. coli, positive cutoff 3-fold increase): 1.2
AK-based Prestwick library screening result, K. pneumoniae (fold increase in extracellular AK activity) (K. pneumoniae; planktonic K. pneumoniae, positive cutoff 3-fold increase): 1.0
AK-based Prestwick library screening result, S. aureus (fold increase in extracellular AK activity) ([1]; planktonic S. aureus, positive cutoff 3-fold increase): 1.0
AK-based Prestwick library screening result, A. baumannii (fold increase in extracellular AK activity) ([2]; planktonic A. baumannii, positive cutoff 3-fold increase): 1.0
AK-based Prestwick library screening result, P. aeruginosa (fold increase in extracellular AK activity) (P. aeruginosa; planktonic P. aeruginosa, positive cutoff 3-fold increase): 1.1
AK-based Prestwick library screening result, E. faecium (fold increase in extracellular AK activity) (E. faecium; planktonic E. faecium, positive cutoff 3-fold increase): 1.1

CCC(=O)OCC(=O)[C@@]1(OC(=O)CC)[C@@H](C)C[C@H]2[C@@H]3CCC4=CC(=O)C=C[C@]4(C)[C@@]3(Cl)[C@@H](O)C[C@@]21C [Beclomethasone dipropionate]
fold induction at 50 µM (E. cloacae; [3]): 1.5
fold induction at 50 µM (E. coli; [4]): 1.1
fold induction at 50 µM (K. pneumoniae; [5]): 0.9
fold induction at 50 µM [1, 6]: 0.5
fold induction at 50 µM [2, 7]: 1
fold induction at 50 µM (P. aeruginosa; [8]): 1
fold induction at 50 µM (E. faecium; [9]): 1

Br.C[N+]1([O-])[C@@H]2CC(OC(=O)[C@H](CO)c3ccccc3)C[C@H]1[C@@H]1O[C@@H]12 (some centres unmarked) [Scopolamin-N-oxide hydrobromide]
AK-based Prestwick Library Screening Results: E. cloacae (increase in extracellular AK activity) (E. cloacae; planktonic E. cloacae, 384-well, […]): 1.5
AK-based Prestwick Library Screening Results: E. coli (increase in extracellular AK activity) (E. coli; planktonic E. coli, 384-well, […]): 1.2
AK-based Prestwick Library Screening Results: K. pneumoniae (increase in extracellular AK activity) (K. pneumoniae; planktonic K. pneumoniae, 384-well, […]): 1.2
AK-based Prestwick Library Screening Results: S. aureus (increase in extracellular AK activity) ([1]; planktonic S. aureus, 384-well, […]): 1.4
AK-based Prestwick Library Screening Results: A. baumannii (increase in extracellular AK activity) ([2]; planktonic A. baumannii, 384-well, […]): 1.4
AK-based Prestwick Library Screening Results: P. aeruginosa (increase in extracellular AK activity) (P. aeruginosa; planktonic P. aeruginosa, 384-well, […]): 1.3
AK-based Prestwick Library Screening Results: E. faecium (increase in extracellular AK activity) (E. faecium; planktonic E. faecium, 384-well, […]): 1.1

CC(C)(CO)[C@@H](O)C(=O)NCCCO [Panthenol (D)]
AK-based Prestwick Library Screening Results, E. cloacae (increase in extracellular AK activity) (E. cloacae; [17]): 1.0
AK-based Prestwick Library Screening Results, E. coli (increase in extracellular AK activity) (E. coli; [17]): 0.9
AK-based Prestwick Library Screening Results, K. pneumoniae (increase in extracellular AK activity) (K. pneumoniae; [17]): 0.7
AK-based Prestwick Library Screening Results, S. aureus (increase in extracellular AK activity) [1, 17]: 0.6
AK-based Prestwick Library Screening Results, A. baumannii (increase in extracellular AK activity) [2, 17]: 0.8
AK-based Prestwick Library Screening Results, P. aeruginosa (increase in extracellular AK activity) (P. aeruginosa; [17]): 0.7
AK-based Prestwick Library Screening Results, E. faecium (increase in extracellular AK activity) (E. faecium; [17]): 0.8

CC(=O)Nc1ccc(O)cc1 [Acetaminophen]
fold induction at 50 µM (E. cloacae; [3]): 1.6
fold induction at 50 µM (E. coli; [4]): 1.4
fold induction at 50 µM (K. pneumoniae; [5]): 1.2
fold induction at 50 µM [1, 6]: 1.6
fold induction at 50 µM [2, 7]: 1.5
fold induction at 50 µM (P. aeruginosa; [8]): 1.1
fold induction at 50 µM (E. faecium; [9]): 1

CC(C)NC[C@@H](O)COc1ccc(CC(N)=O)cc1 [(R)-(+)-Atenolol]
AK-based Prestwick Library Screening Results, E. cloacae (fold increase in extracellular AK activity) (E. cloacae; [18]): 1.3
AK-based Prestwick Library Screening Results, E. coli (fold increase in extracellular AK activity) (E. coli; [18]): 1.3
AK-based Prestwick Library Screening Results, K. pneumoniae (fold increase in extracellular AK activity) (K. pneumoniae; [18]): 1.2
AK-based Prestwick Library Screening Results, S. aureus (fold increase in extracellular AK activity) [1, 18]: 1.2
AK-based Prestwick Library Screening Results, A. baumannii (fold increase in extracellular AK activity) [2, 18]: 1.3
AK-based Prestwick Library Screening Results, P. aeruginosa (fold increase in extracellular AK activity) (P. aeruginosa; [18]): 1.2
AK-based Prestwick Library Screening Results, E. faecium (fold increase in extracellular AK activity) (E. faecium; [18]): 1.0

Cc1c(NC(=O)c2cccnc2)c(=O)n(-c2ccccc2)n1C [Nifenazone]
fold induction at 50 µM (E. cloacae; [10]): 1.2
fold induction at 50 µM (E. coli; [11]): 1.2
fold induction at 50 µM (K. pneumoniae; [12]): 1
fold induction at 50 µM [1, 13]: 1.3
fold induction at 50 µM [2, 14]: 1.6
fold induction at 50 µM (P. aeruginosa; [15]): 1.2
fold induction at 50 µM (E. faecium; [16]): 1
